Source: patent publication US20230097753A1, “ALPHA-HYDROXYLATED FATTY-ACID METABOLITES, MEDICAL USES AND USE AS BIOMARKERS” (UNIVERSITAT DE LES ILLES BALEARS, priority 2020, published 2023)

Test: Brain fatty acid levels in WT and 5xFAD mice after chronic oral treatment
Type: in vivo, mouse
Settings: for Brain levels after treatment with DHA-H sodium salt: oral 5-200 mg/kg, 4 months
Method: FIG. 2. […] Brain levels of HPA (Al) or DHA (A2) (nmoles/mg of protein) are represented in the ordinate axis, with respect to treatment doses with the sodium salt of DHA-H (A1) and the sodium salt of DHA (A1 and A2) (mg/kg). A1: • animals WT; ∘ 5xFAD. A2: Black bars refer to WT animals and white bars to 5xFAD. The levels of HPA and DHA were determined in the brain of WT and 5xFAD mice after chronic administration of DHA-H sodium salt (4 months; 5 doses/week M-F; between 3 and 7 months of age; sacrifice at 7 months). HPA accumulates in the brain of both mouse strains similarly, depending on the dose of DHA-H sodium salt administered (A1: • r2=0.9292, p=0.0002; ∘ r2=0.9704, p<0.0001). […] Data are shown as mean±standard error, and statistical analysis was done by one-way ANOVA and Tukey multiple evaluation test: *p<0.05 compared to control (mice treated with vehicle). Therefore, when the prodrug DHA-H, in particular its sodium salt, is administered in healthy mice and transgenic models of Alzheimer's disease, a significant accumulation of HPA occurs at the brain level, without the presence of the prodrug (DHA-H) being detected, nor changes in endogenous levels of DHA. […] The number of total errors (B1), reference memory errors (RME) (B2) or working memory errors (WME) (B3), committed, are represented in the ordinate axis against the brain levels of HPA (nmol/mg of protein) in the abscissa axis. The cognitive assessment was done by testing the 8-arm radial labyrinth during the last month of treatment of the same animals shown in FIG. 2A. Individual experimental points from the entire study animal population were plotted and the data from the 5xFAD animals were adjusted to an inverse polynomial regression f(x)=y0+(a/x). The values of r^2 and p corresponding to the regression of each parameter are shown below: total errors, RME and WME versus the brain concentration of HPA: C1: r^2=0.9146 and p=0.0311; C2: r^2=0.9252 and p=0.0243; C3: r^2=0.7785 and p=0.0346. […]

Brain DHA levels after treatment	Brain levels after treatment with DHA-H sodium salt	Structure (SMILES)
did not vary significantly	undetectable in the brain	CCC=CCC=CCC=CCC=CCC=CCC=CCC(O)C(=O)O (stereo not drawn) [DHA-H, 2-hydroxy-drocosahexaenoic acid]
	dose-dependent brain accumulation	CC/C=C\C/C=C\C/C=C\C/C=C\C/C=C\CCCCC(=O)O [HPA, (6Z,9Z,12Z,15Z,18Z)-heneicosa-6,9,12,15,18-pentaenoic acid]
